Experimental data published in US11325892B2, “Compounds and methods for treating cancer” (Mayo Foundation for Medical Education and Research, priority 2014, dated 2022).

Columns and labels:
SCD1 = biological target: T1, SCD1 (Homo sapiens, UniProt O00767); details: known inhibitors; cited from earlier work
T1 sequence (O00767 1-359): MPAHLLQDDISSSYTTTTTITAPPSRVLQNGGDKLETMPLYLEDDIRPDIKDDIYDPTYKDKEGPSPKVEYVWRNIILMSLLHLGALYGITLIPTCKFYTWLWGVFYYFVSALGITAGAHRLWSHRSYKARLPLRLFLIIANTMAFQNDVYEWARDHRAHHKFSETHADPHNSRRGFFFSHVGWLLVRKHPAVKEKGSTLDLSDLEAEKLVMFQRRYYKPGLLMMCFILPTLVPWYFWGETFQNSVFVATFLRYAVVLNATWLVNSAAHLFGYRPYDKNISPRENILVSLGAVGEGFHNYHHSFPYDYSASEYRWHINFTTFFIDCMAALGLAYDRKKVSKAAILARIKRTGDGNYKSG

[1] = test system: GADD45a, DDIT3, HERPUD1 transcripts in THJ29T, THJ16T, and KTC2; experiment: QPCR of UPR markers in ATC cells; type: cell-based; details: 10 μM, 24 hours; all cell lines; OA restored expression to control levels
Description: RNA isolation, preparation of cDNA, and QPCR performed as previously described (Tun H W, Marlow L A, von Roemeling C A, Cooper S J, Kreinest P, Wu K, Luxon B A, Sinha M, Anastasiadis P Z, Copland J A. Pathway signature and cellular differentiation in clear cell renal cell carcinoma. PLoS One. 2010; 5(5):e10696). TaqMan®CDFAM™ dye-labeled probes: GAPDH(Hs99999905_ml), POLR2A(Hs00172187_ml), SCD/(Hs01682761_HSPA5(Hs99999174_ml), GADD45A(Hs00169255_ml), DD/T3(Hs01090850_ml), and HERPUD/(Hs01124269_ml). Fold-change comparisons between normal vs. tumor, and DMSO vs. drug treated samples calculated using the […] method (Schmittgen T D, Livak K J. Analyzing real-time PCR data by the comparative C(T) method. Nat Protoc. 2008; 3 (6): 1101-8).
Exogenous application of MUFAs, such as oleic or palmitoleic acid, can rescue the proliferative defects generated by SCD1 inhibition as these are the primary products of SCD1 enzymatic activity (Roongta U V, Pabalan J G, Wang X, Ryseck R P, Fargnoli J, Henley B J, Yang W P, Zhu J, Madireddi M T, Lawrence R M, Wong T W, Rupnow B A. Cancer cell dependence on unsaturated fatty acids implicates stearoyl-CoA desaturase as a target for cancer therapy. Mol Cancer Res. 2011; 9(11):1551-61). THJ29T, THJ16T and KTC2 cells were treated with the EC50 dose of A939572 or MF-438 for 72H with or without 5 μM of oleic acid (OA). […]

[2] = test system: HK2, a transformed renal epithelial cell line; experiment: High-throughput proliferative screen, non-cancerous cells; type: cell-based
Description: Cells were seeded at 5,000 cells/well in clear-bottom 96-well plates in triplicate in Maintenance Media. Drug treatment was applied at a concentration of 1:1000 in reduced serum (3%) Maintenance Media. After 72 hours, cells were washed with PBS, and stored at −80° C. prior to analysis using CyQuant® Proliferation Analysis Kit (Invitrogen) as per manufacturers' protocol for relative fluorescence units. Alternatively, cells were plated 2×10^5/well in 12-well plates (Midwest Scientific) in triplicate prior to drug treatment. After 120 hour treatment, cell number was established using a Coulter Particle Counter (Beckman). Or, cells were plated (0.5 or 1×10^5/well) in 24-well plates (Midwest Scientific), 3×. After 72 hour treatment, cell number established using Coulter Particle Counter (Beckman). Oleic acid-albumin (Sigma Aldrich) was added to media at 5 μM, and was applied adjuvant to drug treatment. Drug stocks were prepared in DMSO (Sigma) at 1000×. EC50 dosing per cell line was calculated using CalcuSyn® analytical software.
In order to identify potential SCD1 inhibitors, a high-throughput proliferative-based screening method was used, with four ccRCC cell lines including A498, ACHN, Caki1, and Caki2. The SCD1 inhibitor MF-438 was included as a positive control. Known compounds ChemBL375265 (Liu G, Lynch J K, Freeman J, et al. Discovery of potent, selective, orally bioavailable stearoyl-CoA desaturase 1 inhibitors. Journal of medicinal chemistry. Jun. 28, 2007; 50(13): 3086-3100) (SetA.100) and SAR707 (Voss M D, Zoller G, Matter H, et al. Discovery and pharmacological characterization of SAR707 as novel and selective small molecule inhibitor of stearoyl-CoA desaturase (SCD1). European journal of pharmacology. May 5, 2013; 707(1-3): 140-146) (TC03.100) were included as single-blinded positive controls, and are indicated with an asterisk (*). […]

SMILES	IC50 (SCD1) [nM]	transcription of UPR markers GADD45a, DDIT3, HERPUD1 [1]	reduction in cell proliferation [2]
CNC(=O)c1cccc(NC(=O)N2CCC(Oc3ccccc3Cl)CC2)c1 [A939572]	37	transcriptionally upregulated	–
Cc1nnc(-c2ccc(N3CCC(Oc4ccccc4C(F)(F)F)CC3)nn2)s1 [MF-438, 2-methyl-5-(6-(4-(2-(trifluoromethyl)phenoxy)piperidin-1-yl)pyridazin-3-yl)-1,3,4-thiadiazole]	–	–	approximately 20%
